From ChEMBL document CHEMBL3576773, “Studies on the ATP Binding Site of Fyn Kinase for the Identification of New Inhibitors and Their Evaluation as Potential Agents against Tauopathies and Tumors” (J Med Chem, 2015) come the findings set out here.

The target in data set [1] is Tyrosine-protein kinase Fyn (Homo sapiens, UniProt P06241). The data set is described as follows: Inhibition of human recombinant full-length Fyn using Src substrate peptide after 15 mins incubation by MicroBeta liquid scintillation counting analysis.
Data set [2] is described as follows: Metabolic stability in human liver microsomes measured after 1 hr in presence of NADPH generating system. Format: ADME. The conditions noted are these: read-out: Stability.
Data set [3] can be described thus: Permeability of the compound by PAMPA-LC-UV analysis. Format: physicochemical.
Data set [4] can be described thus: Permeability of the compound by BBB-PAMPA-LC-UV analysis. Format: physicochemical.
Data set [5] concerns K562. The data set is described as follows: Antiproliferative activity against human K562 cells assessed as vitality after 72 hrs by automatic cell counting analysis. The note with it: K562, 72 h. Format: functional, cell-based.
The test system of data set [6] is MDA-MB-231. The data set is described as follows: Anticancer activity against human MDA-MB-231 cells assessed as cell growth inhibition after 20 to 70 hrs by Real-time RTCA iCELLgence system. Format: functional, cell-based.
A short description of data set [7]: Anticancer activity against human U87 cells assessed as cell growth inhibition after 20 to 70 hrs by Real-time RTCA iCELLgence system. Format: functional, cell-based, U-87MG ATCC. The note with it: U-87 MG.
Data set [8] is described as follows: Cytotoxicity against human fibroblast at 2 uM after 48 hrs. Format: cell-based.
A short description of data set [9]: Induction of apoptosis in Ph+ CML patient CD34+ early hematopoietic progenitor cells assessed as increase in apoptotic level at 2 uM after 48 hrs by Annexin V-FITC/Propidium iodide staining based FACSCalibur flow cytometry. Format: functional, Homo sapiens.
The test system of data set [10] is K562. The data set is described as follows: Induction of apoptosis in human K562 cells assessed as accumulation of hypodiploid cells at 0.1 uM.
The test system of data set [11] is Liver microsome. The data set is described as follows: Drug formation in human liver microsomes treated with 1-(2-Chloro-2-phenylethyl)-3-(4-methylphenyl)-1H-pyrazolo[3,4-d]pyrimidin-4-amine measured after 1 hr by LC-UV-MS analysis. Format: ADME.
For data set [12], the system named is Liver microsome. The data set is described as follows: Drug formation in human liver microsomes treated with 1-(2-Chloro-2-phenylethyl)-3-(4-methyoxyphenyl)-1H-pyrazolo-[3,4-d]pyrimidin-4-amine measured after 1 hr by LC-UV-MS analysis. Format: ADME.
Data set [13] relates to Liver microsome. The data set is described as follows: Drug formation in human liver microsomes treated with 3-(4-Chlorophenyl)-1-(2-chloro-2-phenylethyl)-1H-pyrazolo[3,4-d]pyrimidin-4-amine measured after 1 hr by LC-UV-MS analysis. Format: ADME.
Data set [14] deals with Liver microsome. The data set is described as follows: Drug formation in human liver microsomes treated with 1-(2-Chloro-2-phenylethyl)-3-(4-fluorophenyl)-1H-pyrazolo[3,4-d]pyrimidin-4-amine measured after 1 hr by LC-UV-MS analysis. Format: ADME.
The subject of data set [15] is Liver microsome. The data set is described as follows: Drug formation in human liver microsomes treated with 1-(2-Chloro-2-phenylethyl)-3-phenyl-1H-pyrazolo[3,4-d]-pyrimidin-4-amine hydrocloride measured after 1 hr by LC-UV-MS analysis. Format: ADME.

Tyrosine-protein kinase Fyn, sequence (P06241 whole entry): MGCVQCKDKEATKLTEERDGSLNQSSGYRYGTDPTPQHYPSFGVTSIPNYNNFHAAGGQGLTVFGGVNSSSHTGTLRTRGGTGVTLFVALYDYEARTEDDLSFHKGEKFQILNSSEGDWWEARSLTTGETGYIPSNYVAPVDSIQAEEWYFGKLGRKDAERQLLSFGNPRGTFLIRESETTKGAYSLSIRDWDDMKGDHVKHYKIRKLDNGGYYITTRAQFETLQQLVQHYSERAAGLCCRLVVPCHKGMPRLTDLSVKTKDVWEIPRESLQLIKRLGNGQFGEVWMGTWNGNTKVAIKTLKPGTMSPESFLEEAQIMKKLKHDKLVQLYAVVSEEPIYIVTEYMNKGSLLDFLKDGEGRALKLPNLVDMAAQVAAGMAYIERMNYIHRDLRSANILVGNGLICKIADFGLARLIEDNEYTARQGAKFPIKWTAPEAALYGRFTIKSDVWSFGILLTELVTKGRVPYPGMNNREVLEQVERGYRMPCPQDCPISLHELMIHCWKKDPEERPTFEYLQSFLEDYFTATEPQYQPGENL

Regarding `ClC(Cn1ncc2c(NCCc3ccccc3)nc(SCCN3CCOCC3)nc21)c1ccccc1` (stereo not drawn), the Ki result in data set [1] is given as “Not Active”.
Regarding `Fc1cccc(Nc2nc(SC3CCCC3)nc3c2cnn3CC(Cl)c2ccccc2)c1` (stereo not drawn), the Ki result in data set [1] is reported as “Not Active”.
On the same count and under the same terms, with `Clc1cccc(Nc2nc(SC3CCCC3)nc3c2cnn3CC(Cl)c2ccccc2)c1` (stereo not drawn) the entry was “Not Active”.
On the same count and under the same terms, with `CCCCSc1nc(NCCc2ccccc2)c2cnn(CC(Cl)c3ccccc3)c2n1` (stereo not drawn) the entry was “Not Active”; with `ClC(Cn1ncc2c(NCCc3ccccc3)nc(SC3CCCC3)nc21)c1ccccc1` (stereo not drawn), “Not Active”; with `CCC(C)Sc1nc(NCc2ccccc2)c2cnn(CC(Cl)c3ccccc3)c2n1` (stereo not drawn), “Not Active”.
As for `CCC(C)Sc1nc(NCCc2ccccc2)c2cnn(CC(Cl)c3ccccc3)c2n1` (stereo not drawn), the Ki result in [1] is recorded as “Not Active”.
For the molecule `Nc1ncnc2c1c(-c1ccccc1)nn2CC(Cl)c1ccccc1` (stereo not drawn), the Ki in data set [1] (read-out: Ki) was determined as 0.9 µM. The remaining at 1 h in [2] came out at 78.9%. The apparent permeability (Papp) in data set [3] was 12.8 ×10⁻⁶ cm/s; in data set [4], 9.5 ×10⁻⁶ cm/s.
Consider `Nc1ncnc2c1c(-c1ccc(F)cc1)nn2CC(Cl)c1ccccc1` (stereo not drawn), for which, in data set [2], the remaining at 1 h came to 95.7%. The IC50 in data set [5] is 12.6 µM. Also, the Papp turned out to be 16.5 ×10⁻⁶ cm/s in [3] and 12.9 ×10⁻⁶ cm/s in data set [4].
`Nc1ncnc2c1c(-c1ccc(Cl)cc1)nn2CC(Cl)c1ccccc1` (stereo not drawn): the IC50 in [6] is 3.7 µM; in [7] it was 0.074 µM; in [5] it was 0.56 µM. Moreover, the remaining at 1 h in data set [2] stood at 85.2%. The Papp was determined as 9.9 ×10⁻⁶ cm/s in data set [3] and 8.4 ×10⁻⁶ cm/s in data set [4]. The Activity entry in data set [8] is recorded as “Non-toxic”; in data set [9], 35%.
As to `Cc1ccc(-c2nn(CC(Cl)c3ccccc3)c3ncnc(N)c23)cc1` (stereo not drawn), the IC50 in [6] stood at 8.3 µM; in data set [7], 0.78 µM; in data set [5] it was 0.3 µM. The remaining at 1 h in data set [2] worked out at 90%. The Papp in data set [3] was 10.9 ×10⁻⁶ cm/s; in data set [4], 11.5 ×10⁻⁶ cm/s. The figures for the Activity entry in data set [8], in [10] and in data set [9] were “Non-toxic”, 50% and 30%, respectively.
Consider `COc1ccc(-c2nn(CC(Cl)c3ccccc3)c3ncnc(N)c23)cc1` (stereo not drawn), for which the remaining at 1 h in [2] amounted to 95.6%. For the same molecule, the Papp in data set [3] was found to be 17.5 ×10⁻⁶ cm/s; in data set [4], 14.5 ×10⁻⁶ cm/s.
Turning to `CC(Cn1nc(-c2ccc(Cl)cc2)c2c(N)ncnc21)c1ccccc1` (stereo not drawn), in data set [1] (read-out: Ki), the Ki was 0.78 µM.
Still for that read-out and setting: with `CC(=O)c1ccc(-c2nn(CC(C)c3ccccc3)c3ncnc(N)c23)cc1` (stereo not drawn) the figure was 10 µM; with `CNc1nc(SC)nc2c1c(-c1ccccc1)nn2CCc1ccccc1`, 10 µM; with `COC(Cn1nc(-c2ccccc2)c2c(N)nc(SC)nc21)c1ccccc1` (stereo not drawn), 10 µM.
For the molecule `CCc1ccc2[nH]c(=O)c(CN(Cc3ccc4c(c3)OCO4)C(=O)Nc3ccc(F)cc3)cc2c1`, in data set [1] (read-out: Ki), the Ki came to 2.1 µM.
The same measure, in the same setting: with `CCOc1ccc(-c2[nH]ncc2CN2CCN(S(=O)(=O)N3CCCC3)CC2)cc1` the figure was 2.25 µM.
Regarding `Cc1ccc(-c2cc(-c3ccccc3)c3c(N)c(C(=O)Nc4ccc(F)cc4)sc3n2)cc1`, the Ki result in data set [1] was “Not Active”.
Regarding `Nc1ncnc2c1c(-c1ccccc1)nn2CC(=O)c1ccccc1`, the Drug metabolism result in [11], in data set [12], in data set [13], in [14] and in [15] was “metabolite_detected” each time.
With `Nc1ncnc2c1c(-c1ccccc1)nn2CC(O)c1ccccc1` (stereo not drawn), the Drug metabolism result in [11], in data set [12], in data set [13], in data set [14] and in data set [15] was “metabolite_detected” in each case.
For the molecule `Nc1ncnc2c1c(-c1ccc(O)cc1)nn2CC(Cl)c1ccccc1` (stereo not drawn), the Drug metabolism entry in [12] was “metabolite_detected”.
